“And” between values parts separate entries of the source, which are not always exact repeats. Equal entries are not always repeated.
Assays:
Details in all cases: incubation time: 72 h
CAL-51 = experiment: drug sensitivity score (DSS), CellTox Green (DSS (AUC-based score)); higher = stronger drug effect (viability inhibition or cytotoxicity); extreme values may be limits of the assay
Method in brief: (§1)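 Compound was dispensed into 384-well plates at 5 concentrations in 10-fold steps spanning a 10,000-fold range chosen for each compound, and 20 µl of breast cancer cell suspension was added before 72 h of incubation. CellTox Green fluorescence was read at 485/520 nm, followed by CellTiter-Glo luminescence after 10 min at room temperature. Values on each plate were normalised to 0.1 % DMSO and a positive kill control. The drug sensitivity score came from the area under the fitted dose-response curve.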

BT-474 [1] = experiment: as above
Method in brief: as §1

CAL-85-1 = experiment: as above
Method in brief: as §1

MDA-MB-436 [2] = experiment: as above
Method in brief: as §1

CAL-148 [3] = experiment: as above
Method in brief: as §1

DU-4475 [4] = experiment: as above
Method in brief: as §1

Hs578T [5] = experiment: as above
Method in brief: as §1

CAL-120 [6] = experiment: as above
Method in brief: as §1

HCC1937 [7] = experiment: as above
Method in brief: as §1

HCC1143 = experiment: as above
Method in brief: as §1

MDA-MB-468 [8] = experiment: as above
Method in brief: as §1

MFM-223 [9] = experiment: as above
Method in brief: as §1

HDQ-P1 = experiment: as above
Method in brief: as §1

BT-549 = experiment: as above
Method in brief: as §1

MCF-10A = experiment: as above
Method in brief: as §1

MDA-MB-453 [10] = experiment: as above
Method in brief: as §1

HCC1599 = experiment: as above
Method in brief: as §1

BT-474 [11] = experiment: normalised viability (% of control), CellTiter-Blue; higher = more viable cells (about 100 = DMSO control)
Protocol: (§2)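 DSRT, CellTiter-Blue viability, 72 h incubation. Signal is normalised to DMSO and benzethonium chloride controls. Value is the normalised response at dose 3.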

MDA-MB-436 [12] = experiment: as above
Protocol: as §2

CAL-148 [13] = experiment: as above
Protocol: as §2

DU-4475 [14] = experiment: as above
Protocol: as §2

Hs578T [15] = experiment: as above
Protocol: as §2

CAL-120 [16] = experiment: as above
Protocol: as §2

HCC1937 [17] = experiment: as above
Protocol: as §2

MDA-MB-468 [18] = experiment: as above
Protocol: as §2

MFM-223 [19] = experiment: as above
Protocol: as §2

SK-BR-3 = experiment: as above
Protocol: as §2

MDA-MB-453 [20] = experiment: as above
Protocol: as §2

| Structure (SMILES) | drug sensitivity score (CAL-51) | drug sensitivity score (BT-474 [1]) | drug sensitivity score (CAL-85-1) | drug sensitivity score (MDA-MB-436 [2]) | drug sensitivity score (CAL-148 [3]) | drug sensitivity score (DU-4475 [4]) | drug sensitivity score (Hs578T [5]) | drug sensitivity score (CAL-120 [6]) | drug sensitivity score (HCC1937 [7]) | drug sensitivity score (HCC1143) | drug sensitivity score (MDA-MB-468 [8]) | drug sensitivity score (MFM-223 [9]) | drug sensitivity score (HDQ-P1) | drug sensitivity score (BT-549) | drug sensitivity score (MCF-10A) | drug sensitivity score (MDA-MB-453 [10]) | drug sensitivity score (HCC1599) | normalised viability (BT-474 [11]; 100 nM) | normalised viability (MDA-MB-436 [12]; 100 nM) | normalised viability (CAL-148 [13]; 10 nM) | normalised viability (DU-4475 [14]; 10 nM) | normalised viability (Hs578T [15]; 100 nM) | normalised viability (CAL-120 [16]; 100 nM) | normalised viability (HCC1937 [17]; 100 nM) | normalised viability (MDA-MB-468 [18]; 100 nM) | normalised viability (MFM-223 [19]; 100 nM) | normalised viability (SK-BR-3; 100 nM) | normalised viability (MDA-MB-453 [20]; 10 nM) [%] | normalised viability (BT-474 [11]; 400 nM) [%] | normalised viability (MDA-MB-436 [12]; 400 nM) [%] | normalised viability (CAL-148 [13]; 40 nM) [%] | normalised viability (DU-4475 [14]; 40 nM) [%] | normalised viability (Hs578T [15]; 400 nM) [%] | normalised viability (CAL-120 [16]; 400 nM) [%] | normalised viability (HCC1937 [17]; 400 nM) [%] | normalised viability (MDA-MB-468 [18]; 400 nM) [%] | normalised viability (MFM-223 [19]; 400 nM) [%] | normalised viability (SK-BR-3; 400 nM) [%] | normalised viability (MDA-MB-453 [20]; 40 nM) [%] |
| --- | --- | --- | --- | --- | --- | --- | --- | --- | --- | --- | --- | --- | --- | --- | --- | --- | --- | --- | --- | --- | --- | --- | --- | --- | --- | --- | --- | --- | --- | --- | --- | --- | --- | --- | --- | --- | --- | --- | --- |
| N#Cc1ccc(COC[C@H]2O[C@@H](n3c(NCc4ccc(Cl)c(Cl)c4)nc4c(N)ncnc43)[C@H](O)[C@@H]2O)cc1 | 0 | 0 | 2.89 | 0 | 0 | 0 | 0 | 0 | 0 | 0 | 0 | 3.38 | 0 | 0 | 0 | 0 | 0 | 123% | 104% | 103% | 111% | 95.8% | 106% | 99.4% | 94.5% | 93.9% | 89.7% | 105 | – | – | – | – | – | – | – | – | – | – | – |
| COc1cc(OC2CCN(C)CC2)ccc1Nc1ncc2c(n1)n(C1CCCC1)c(=O)n2C [AZ 3146] | 9.75 | 0 | 0 | 4.7 | 0 | 0 | 0 | 0 | – | 0 | 0 | 0 | 0 | 0 | 0 | 0 | 2.26 | 113% | 93.5% | 105% | 101% | 82% | 121% | 81.8% | 106% | 105% | 97.3% | 88.2 | – | – | – | – | – | – | – | – | – | – | – |
| CN(C)c1nc(N(C)C)nc(N(C)C)n1 [Altretamine] | 0 | 0 | 0 | 0 | 0 | 0 | 0 | 0 | 0 | 0 | 0 | 0 | 0 | 0 | 0 | 0 | 0 | 117% | 89.5% | 102% | 104% | 96.1% | 95.5% | 91.8% | 104% | 97.2% | 92.2% | 97.5 | – | – | – | – | – | – | – | – | – | – | – |
| O=C(/C=C/c1cccc(S(=O)(=O)Nc2ccccc2)c1)NO [Belinostat] | 13 | 8.01 | 11.5 | 0 | 8.43 | 3.83 | 6.63 | 9.87 | 0 | 0 | 2.85 | 4.75 | 0 | 0 | 10.5 | 0.0261 | 0 | 90.4% | 95.3% | 91% | 109% | 70.2% | 66.3% | 92.4% | 88.5% | 96.4% | 65.7% | 95.8 | – | – | – | – | – | – | – | – | – | – | – |
| O=P1(N(CCCl)CCCl)NCCCO1 (configuration not stated) [Cyclophosphamide] | 0 | 0 | 0 | 0 | 0 | 0 | – | 0 | 0 | 0 | – | 0 | 0 | 0 | 0 | 0 | 0 | – | – | – | – | – | – | – | – | – | – | – | 118 | 101 | 103 | 103 | 93 | 85.6 | 99.8 | 109 | 91.1 | 91.6 | 110 |
| C=C1C[C@@H]2[C@H](CC[C@]3(C)C(=O)CC[C@@H]23)[C@@]2(C)C=CC(=O)C=C12 [Exemestane] | 0 | 0 | 1.08 | 0 | 0 | 0 | 0 | 0 | 0 | 0 | 0 | 0 | 3.28 | 0 | 0 | 0 | 0 | 99.4% | 82.8% | 95.4% | 91.1% | 94.4% | 92.7% | 103% | 111% | 93% | 78% | 102 | – | – | – | – | – | – | – | – | – | – | – |
| COc1cc2ncnc(Nc3ccc(F)c(Cl)c3)c2cc1OCCCN1CCOCC1 [Gefitinib] | 0 | – | 4.48 | 0 | 2.34 | 0 | 0 | 0 | 0 | 0 | 0 | 0 | 0 | 0 | 0 | 0 | 0 | 92.3% and 101% | 89.9% and 93.7% | 84.8% and 87.6% | 108% and 93.9% | 86.3% and 99.7% | 81.9% and 92.8% | 102% and 92% | 81.7% and 89.3% | 98.7% and 89.5% | 80.9% and 72.1% | 96.9 | – | – | – | – | – | – | – | – | – | – | – |
